# Data published in patent US7750158B2, “Cannabinoid receptor ligands” (Schering Corporation, priority 2004, dated 2010).
# Read-outs that look alike come from different tables or passages of the source.
# Key:
# [1] = target: T1, recombinant human cannabinoid CB2 receptor (Homo sapiens, UniProt P34972); experiment: [3H] CP-55,940 competition binding to recombinant cannabinoid receptor membranes (CB2)
# T1 construct: purchased Receptor Biology RB-HCB2
# Experimental: (§1) Potential cannabinoid receptor ligands were screened for the ability to compete with [^3H] CP-55,940, which is a known receptor ligand, for binding to recombinant cannabinoid receptors. Test compounds were serially diluted in Diluent Buffer (50 mM Tris pH 7.1, 1 mM EDTA, 3 mM MgCl2, 0.1% BSA, 10% DMSO, 0.36% methyl cellulose (Sigma M-6385)) from stocks prepared in 100% DMSO. Aliquots (10 μL) were transferred into 96-well microtiter plates. Membrane preparations of recombinant human cannabinoid CB2 receptor (Receptor Biology #RB-HCB2) or recombinant human cannabinoid CB1 receptor (Receptor Biology #RB-HCB1) were diluted to 0.3 mg/mL in Binding Buffer (50 mM Tris pH 7.2, 1 mM EDTA, 3 mM MgCl2, 0.1% BSA). Aliquots (50 μL) were added to each well of the microtiter plate. The binding reactions were initiated by addition of [^3H] CP-55,940 (New England Nuclear #NET 1051; specific activity=180 Ci/mmol) to each well of the microtiter plate. Each 100 μl reaction mixture contained 0.48 nM [^3H] CP-55,940, 15 μg membrane protein in binding buffer containing 1% DMSO and 0.036% methyl cellulose. Following incubation for 2 hours at room temperature, the reactions were filtered through 0.5% polyethylenimine-coated GF/C filter plates (UniFilter-96, Packard) with a TomTec Mark 3U Harvester (Hamden, Conn.). The filter plate was washed 5 times with binding buffer, rotated 180°, then re-washed 5 times with binding buffer. Bound radioactivity was quantitated following addition of 30 μl of Packard Microscint 20 scintillant in a Packard TopCount NXT microplate scintillation counter. Non-linear regression analysis of the resulting data was performed using Prism 2.0b (GraphPad, San Diego, Calif.).
# The activities (potencies) for the compounds of the invention are determined by measuring their Ki values.
# [2] = target: T2, recombinant human cannabinoid CB1 receptor (Homo sapiens, UniProt P21554); experiment: [3H] CP-55,940 competition binding to recombinant cannabinoid receptor membranes (CB1), reported as the CB1/CB2 selection ratio; details: Ki CB1 / Ki CB2, same binding assay
# T2 construct: purchased Receptor Biology RB-HCB1
# Experimental: as §1
# [3] = 0.48 nM [3H] CP-55,940, 15 μg membrane protein, 2 hours at room temperature, read-out: Ki values (CB2 receptor)
# T1 sequence (P34972 whole entry): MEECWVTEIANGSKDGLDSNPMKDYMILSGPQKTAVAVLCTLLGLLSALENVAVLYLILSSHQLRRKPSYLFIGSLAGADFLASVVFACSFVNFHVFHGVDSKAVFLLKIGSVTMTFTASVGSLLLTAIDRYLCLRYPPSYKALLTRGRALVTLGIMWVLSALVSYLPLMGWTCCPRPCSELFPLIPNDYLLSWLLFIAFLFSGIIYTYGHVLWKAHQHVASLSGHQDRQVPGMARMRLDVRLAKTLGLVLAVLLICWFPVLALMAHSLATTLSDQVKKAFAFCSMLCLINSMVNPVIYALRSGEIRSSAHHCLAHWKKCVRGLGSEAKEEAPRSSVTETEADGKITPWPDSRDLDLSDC
# T2 sequence (P21554 whole entry): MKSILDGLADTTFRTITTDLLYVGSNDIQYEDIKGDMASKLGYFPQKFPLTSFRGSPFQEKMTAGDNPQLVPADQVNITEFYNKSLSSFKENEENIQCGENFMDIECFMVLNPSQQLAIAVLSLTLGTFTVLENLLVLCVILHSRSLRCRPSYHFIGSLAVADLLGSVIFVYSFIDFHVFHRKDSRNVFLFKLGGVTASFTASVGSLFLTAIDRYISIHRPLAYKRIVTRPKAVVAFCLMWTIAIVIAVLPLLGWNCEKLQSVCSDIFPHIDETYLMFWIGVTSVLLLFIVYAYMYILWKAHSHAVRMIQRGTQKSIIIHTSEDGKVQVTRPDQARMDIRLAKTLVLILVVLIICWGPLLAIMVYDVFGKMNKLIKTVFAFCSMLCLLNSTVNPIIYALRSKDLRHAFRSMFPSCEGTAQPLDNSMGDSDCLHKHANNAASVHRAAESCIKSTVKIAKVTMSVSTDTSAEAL
"Ki [1, 3]",selection ratio of the Ki value of the CB1 receptor to that of the CB2 receptor [2],Compound,Ki [1]
0.24 nM,about 15000,CS(=O)(=O)NC1CC12CCN(S(=O)(=O)c1cc3ccccc3n1S(=O)(=O)c1ccccc1F)CC2 (racemic) [compound 20],
1.5 nM,~6300,O=S(=O)(c1ccccn1)c1cc(Cl)ccc1S(=O)(=O)N1CC2C(CNS(=O)(=O)C(F)(F)F)C2C1 (stereo not shown) [compound 6],
0.65 nM,~2700,CS(=O)(=O)NCC1C2CN(S(=O)(=O)c3ccc(Cl)cc3S(=O)(=O)c3ccccc3F)CC12 (stereo not shown) [compound 9],
1.46 nM,about 1000,O=S(=O)(c1ccccc1F)c1cc(Cl)ccc1S(=O)(=O)N1CC2C(CNS(=O)(=O)C(F)(F)F)C2C1 (stereo not shown) [compound 11],
1 nM,~3400,CS(=O)(=O)NCC1C2CN(S(=O)(=O)c3cc4ccccc4n3S(=O)(=O)c3ccccc3F)CC12 (stereo not shown) [compound 13],
1 nM,~400,O=S(=O)(c1cc2ccccc2n1S(=O)(=O)c1ccccc1F)N1CCC2(CC1)C[C@@H]2NS(=O)(=O)C(F)(F)F [compound 22],
0.4 nM,~3500,O=S(=O)(c1cc2ccccc2n1S(=O)(=O)c1ccccn1)N1CCC2(CC1)CC2NS(=O)(=O)C(F)(F)F (stereo not shown) [compound 41],
3.3 nM,~4100,O=S(=O)(c1cc2cccnc2n1S(=O)(=O)c1ccccc1F)N1CC2C(CNS(=O)(=O)C(F)(F)F)C2C1 (stereo not shown) [compound 60],

Compound,"Ki [1, 3]",selection ratio of the Ki value of the CB1 receptor to that of the CB2 receptor [2],Ki [1]
O=S(=O)(c1ccccn1)c1cc(C(F)(F)F)ccc1S(=O)(=O)N1CCC2(CC1)CC2NS(=O)(=O)C(F)(F)F (stereo not shown) [compound 31],,~71,5 nM
CS(=O)(=O)NCC1CC2CCC(C1)N2S(=O)(=O)c1cc2ccccc2n1S(=O)(=O)c1ccccc1F (stereo not shown) [compound 47],,~790,7 nM
CCC1(CNCC(F)(F)F)CC2CCC(C1)N2S(=O)(=O)c1ccc(Cl)cc1S(=O)(=O)c1ccccn1 (stereo not shown) [compound 58],,~770,41 nM
CCC1(CNS(=O)(=O)C(F)(F)F)CC2CCC(C1)N2S(=O)(=O)c1ccc(Cl)cc1S(=O)(=O)c1ccccn1 (stereo not shown) [compound 59],,~52,25.9 nM
Cn1c(S(=O)(=O)N2CCC3(CC2)CC3NS(=O)(=O)C(F)(F)F)c(S(=O)(=O)c2ccccc2F)c2ccccc21 (stereo not shown) [compound 61],,~1200,3.9 nM
CC(C)n1c(S(=O)(=O)N2CC3C(CNC(=O)OC(C)(C)C)C3C2)c(S(=O)(=O)c2ccccc2F)c2ccccc21 (stereo not shown) [compound 62],,~1.9,28 nM
